Read-outs that look alike come from different tables or passages of the source. Where a SMILES comes first, the peptide text is derived from it. Bridges are numbered along the chain shown (N, C = ends). [ ]: non-standard residue; d: D form. Tle = CC(C)(C)[C@H](N)C(=O)O; Nle = CCCC[C@H](N)C(=O)O; Dab = NCC[C@H](N)C(=O)O; Dap = NC[C@H](N)C(=O)O

Assay type in all cases: cell-based
For data set [1], the system named is human red blood cells (hRBC). Description: Hemolysis of human red blood cells. The following applies: 100 μg/mL. The gist of the method: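 Peptides at 100 μg/mL were incubated with PBS-washed fresh human erythrocytes (20% v/v, ~0.9×10^9 cells/mL final) for 1 h at 37° C. with shaking. Supernatant OD540 was read after 8-fold dilution; percent hemolysis was expressed relative to the 2.5% Triton X-100 full-lysis control, with PBS/0.001% acetic acid as 0%.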

Data set [2] concerns Klebsiella pneumoniae 968733.
Data set [3] concerns Klebsiella pneumoniae SSI #3010. The gist of the method: (§1)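 Inocula standardised to a 0.5 McFarland reference and diluted to about 10^6 CFU/mL in MH-II broth are incubated with two-fold peptide series containing 0.002% polysorbate 80. No visible growth after 18-20 hours at 35° C defines the MIC, in μg/mL.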
Data set [4] has as its system Acinetobacter baumannii 872842.
Data set [5] deals with Escherichia coli ATCC 25922. The method in brief:
as §1

In data set [6] the test system is Acinetobacter baumannii DSM 30008. The method in brief: as §1
The subject of data set [7] is Pseudomonas aeruginosa ATCC 27853. The gist of the method: as §1
In the next data set the test system is Escherichia coli 926415.
The mark [8] stands for this setting: clinical isolate, Mueller-Hinton II broth, P-80 0.002% present.

With `CCCC[C@@H]1NC(=O)[C@@H]2CCCN2C(=O)[C@@H](C)NC(=O)[C@H](CO)NC(=O)[C@H](C)NC(=O)[C@H](C(C)(C)C)NC(=O)[C@@H](NC(=O)[C@H](Cc2c[nH]c3ccccc23)NC(C)=O)CSSC[C@@H](C(=O)N[C@@H](CCN)C(=O)N[C@H](C(=O)N[C@@H](CCN)C(=O)N[C@H]2CCNC(=O)[C@H]([C@@H](C)O)NC(=O)[C@H](CCN)NC(=O)[C@H](CCN)NC(=O)[C@H](CC(C)C)NC(=O)[C@@H](Cc3ccccc3)NC(=O)[C@H](CCN)NC2=O)[C@@H](C)O)NC(=O)[C@H](Cc2ccc(O)cc2)NC(=O)[C@H](CO)NC1=O` [Ex. 17] (Ac-WC[Tle]AS[dA]P[Nle]SYC[Dab]T[Dab][Dab][Dab][dF]L[Dab][Dab]T; disulfide 2-11; lactam 15-C), the “Hemolysis at 100 μg/mL” value in data set [1] (red cells of human, 1 h) is reported as 3%. In addition, the “Klebsiella pneumoniae 968733 MIC” value in data set [2] (968733) was 0.5 µg/mL. Also, in data set [3] (SSI #3010), the “Klebsiella pneumoniae SSI #3010 MIC” value came out at 0.5 µg/mL. Further, the “Acinetobacter baumannii 872842 MIC” value in data set [4] (872842) came out at 0.25 µg/mL. The “Escherichia coli ATCC 25922 MIC” value in data set [5] (ATCC 25922) came out at 0.25 µg/mL. The “Acinetobacter baumannii DSM 30008 MIC” value in data set [6] (DSM 30008) was found to be 0.5 µg/mL. The “Pseudomonas aeruginosa ATCC 27853 MIC” value in data set [7] (ATCC 27853) was 0.5 µg/mL. Moreover, in the data set on Escherichia coli 926415 (926415), the “Escherichia coli 926415 MIC” value turned out to be 1.5 µg/mL.

For the molecule `CCCC[C@@H]1NC(=O)[C@@H]2CCCN2C(=O)[C@H]2CCCN2C(=O)[C@H]([C@@H](C)O)NC(=O)[C@H](CO)NC(=O)[C@H](C(C)(C)C)NC(=O)[C@@H](NC(=O)[C@H](Cc2c[nH]c3ccccc23)NC(C)=O)CSSC[C@@H](C(=O)N[C@@H](CCN)C(=O)N[C@H](C(=O)N[C@@H](CCN)C(=O)N[C@H]2CCNC(=O)[C@H]([C@@H](C)O)NC(=O)[C@H](CCN)NC(=O)[C@H](CCN)NC(=O)[C@H](CC(C)C)NC(=O)[C@@H](Cc3ccccc3)NC(=O)[C@H](CCN)NC2=O)[C@@H](C)O)NC(=O)[C@H](Cc2ccc(O)cc2)NC(=O)[C@H](C)NC1=O` [Ex. 18] (Ac-WC[Tle]ST[dP]P[Nle]AYC[Dab]T[Dab][Dab][Dab][dF]L[Dab][Dab]T; disulfide 2-11; lactam 15-C), in data set [1] (20% hRBC, 1 h at 37° C.), the “Hemolysis at 100 μg/mL” value is given as 6%. In addition, in data set [2] (setting [8]), the “Klebsiella pneumoniae 968733 MIC” value worked out at 0.5 µg/mL. Besides, in data set [3] (Mueller-Hinton II broth), the “Klebsiella pneumoniae SSI #3010 MIC” value is 2 µg/mL. The “Acinetobacter baumannii 872842 MIC” value in data set [4] (setting [8]) was found to be 1 µg/mL. Further, the “Escherichia coli ATCC 25922 MIC” value in data set [5] (Mueller-Hinton II broth) worked out at 0.125 µg/mL. In data set [6] (Mueller-Hinton II broth), the “Acinetobacter baumannii DSM 30008 MIC” value amounted to 0.25 µg/mL. For the same molecule, the “Pseudomonas aeruginosa ATCC 27853 MIC” value in data set [7] (Mueller-Hinton II broth) came out at 0.5 µg/mL. Moreover, the “Escherichia coli 926415 MIC” value in the data set with Escherichia coli 926415 (setting [8]) is 0.5 µg/mL.

In the case of `CCCC[C@@H]1NC(=O)[C@@H]2CCCN2C(=O)[C@H]2CCCN2C(=O)[C@H](CO)NC(=O)[C@H](C)NC(=O)[C@H](C(C)(C)C)NC(=O)[C@@H](NC(=O)[C@H](Cc2c[nH]c3ccccc23)NC(C)=O)CSSC[C@@H](C(=O)N[C@@H](CCN)C(=O)N[C@H](C(=O)N[C@@H](CN)C(=O)N[C@H]2CCNC(=O)[C@H]([C@@H](C)O)NC(=O)[C@H](CCN)NC(=O)[C@H](CCN)NC(=O)[C@H](CC(C)C)NC(=O)[C@@H](Cc3ccccc3)NC(=O)[C@H](CCN)NC2=O)[C@@H](C)O)NC(=O)[C@H](Cc2ccc(O)cc2)NC(=O)[C@H](CO)NC1=O` [Ex. 20] (Ac-WC[Tle]AS[dP]P[Nle]SYC[Dab]T[Dap][Dab][Dab][dF]L[Dab][Dab]T; disulfide 2-11; lactam 15-C), in data set [1] (red cells of human, 1 h), the “Hemolysis at 100 μg/mL” value is on record as 1%. Further, in data set [2] (968733), the “Klebsiella pneumoniae 968733 MIC” value was determined as 1 µg/mL. Besides, in data set [3] (SSI #3010), the “Klebsiella pneumoniae SSI #3010 MIC” value amounted to 0.25 µg/mL. For the same molecule, the “Acinetobacter baumannii 872842 MIC” value in data set [4] (872842) amounted to 0.5 µg/mL. Also, in data set [5] (ATCC 25922), the “Escherichia coli ATCC 25922 MIC” value turned out to be 0.125 µg/mL. In addition, the “Acinetobacter baumannii DSM 30008 MIC” value in data set [6] (DSM 30008) turned out to be 0.5 µg/mL. For the same molecule, in data set [7] (ATCC 27853), the “Pseudomonas aeruginosa ATCC 27853 MIC” value came out at 0.25 µg/mL. Further, in the data set on Escherichia coli 926415 (926415), the “Escherichia coli 926415 MIC” value turned out to be 0.25 µg/mL.

Values taken from patent US10829520B2, “Beta-hairpin peptidomimetics” (POLYPHOR AG, priority 2015, dated 2020).
